# Molecular target: T1, K103NNY181C mutant reverse transcriptase (Human immunodeficiency virus type 1 group M subtype B, UniProt P04585, K690N/Y768C)
# T1 construct: mutations that occur in the reverse transcriptase segment of the pol gene
# Assay: Reverse transcriptase enzymatic assay (PicoGreen), K103N/Y181C mutant RT
# Assay type: biochemical, HIV-1
# Details: IC50 mut (nM), mutant (K103N/Y181C) reverse transcriptase, enzymatic assay of Example 24
# Summary of the method: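 PicoGreen fluorescence (ex 485, em 520 nm) quantified product after EDTA stop. Reaction ran 50 min at 37 °C in pH 7.8 Tris/HCl buffer, 1% DMSO, with poly rC/dG15 template-primer (45/4.5 nM), 3.6 μM dGTP, 2.5 nM enzyme; inhibitor 10 μM–0.508 nM final after 15 min room-temperature pre-incubation.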
row,Compound,IC50
1,CC(C)(C)c1ccc(-n2nnnc2SCC(=O)Nc2ccc(NC(=O)Cc3cccc[n+]3[O-])cc2Cl)c(Cl)c1 [Compound 7047],43.5 nM
2,CC(C)(C)c1ccc(-n2nnnc2SCC(=O)Nc2ccc(NC(=O)C3CCCC3)cc2Cl)c(Cl)c1 [Compound 7021],262 nM
3,COC(C(=O)Nc1ccc(NC(=O)CSc2nnnn2-c2ccc(C(C)(C)C)cc2Cl)c(Cl)c1)c1ccccc1 (centres unmarked) [Compound 7039],89.5 nM
4,CC(C)(C)c1ccc(-n2nnnc2SCC(=O)Nc2ccc(NC(=O)Cc3cccnc3)cc2Cl)c(Cl)c1 [Compound 7031],43 nM

# Same assay, conditions: IC50 mut, K103N/Y181C mutant reverse transcriptase, enzymatic assay of Example 24
row,Compound,IC50
1,CC(C)(C#Cc1ccc(NC(=O)CSc2nnnn2-c2cc(C(F)(F)F)ccc2Cl)c(Cl)c1F)NC(=O)c1cc[n+]([O-])cc1 [Compound 4164],18.5 nM
2,O=C(CSc1nnnn1-c1ccc(C2CC2)cc1Cl)Nc1ccc(C#CC(O)(C(F)(F)F)C(F)(F)F)cc1Cl [Compound 4249],203 nM
3,O=C(CSc1nnnn1-c1ccc(C2CC2)cc1Cl)Nc1ccc(C#CC2(CN3CCC(O)CC3)CC2)cc1Cl [Compound 4096],37 nM
4,Cc1c(NC(=O)CSc2nnnn2-c2ccc(C3CC3)cc2Cl)ccc(C#CC(C)(C)NC(=O)c2cc[n+]([O-])cc2)c1F [Compound 4178],26 nM
5,CCS(=O)(=O)NC(=O)C(C)(C)C#Cc1ccc(NC(=O)CSc2nnnn2-c2ccc(C3CC3)cc2Cl)c(Cl)c1 [Compound 4197],57.5 nM
6,CC(C)(C#Cc1ccc(NC(=O)CSc2nnnn2-c2ccc(C(C)(C)C)cc2Cl)c(Cl)c1)OCC(=O)Nc1cnccn1 [Compound 4040],58 nM
7,CC(C)(C#Cc1ccc(NC(=O)CSc2nnnn2-c2cc(Cl)ccc2Cl)c(Cl)c1)NC(=O)c1cc[n+]([O-])cc1 [Compound 4189],19.5 nM
8,CC(C)(C#Cc1ccc(NC(=O)CSc2nnnn2-c2ccc(C3CC3)cc2Cl)c(Cl)c1F)OCCN1CCC(F)(F)C1 [Compound 4217],90.5 nM
9,CC(C)(C#Cc1ccc(NC(=O)CSc2nnnn2-c2ccc(C3CC3)cc2Cl)c(Cl)c1)OCCN1CCS(=O)(=O)CC1 [Compound 4241],30.5 nM
10,CC(C)(C#Cc1ccc(NC(=O)CSc2nnnn2-c2cc(C3CC3)ccc2Cl)c(Cl)c1)C(=O)O [Compound 4174],34 nM
11,CC(C)(C#Cc1ccc(NC(=O)CSc2nnnn2-c2ccc(C3CC3)cc2Cl)c(Cl)c1)OCCN1CCCC1=O [Compound 4182],58.5 nM

# Same assay, conditions: IC50 mut, mutant reverse transcriptase, enzymatic assay of Example 24
row,Compound,IC50
1,CC(C)(C)c1ccc(-n2nnnc2SCC(=O)Nc2ccc(C(=O)NCc3ccco3)cc2Cl)c(Cl)c1 [Compound 6003],13 nM
2,Cc1ccc(-n2nnnc2SCC(=O)Nc2ccc(-c3coc(C)n3)cc2Cl)c(Cl)c1 [Compound 3017],308 nM
3,CC(C)(C)c1ccc(-n2nnnc2SCC(=O)Nc2ccc(C(=O)NCCc3ccc(O)cc3)cc2Cl)c(Cl)c1 [Compound 6017],33 nM
4,CC(C)(C)c1ccc(-n2nnnc2SCC(=O)Nc2ccc(C(=O)NCCO)cc2Cl)c(Cl)c1 [Compound 6016],35 nM
5,CC(C)(C)c1ccc(-n2nnnc2SCC(=O)Nc2ccc(OCC(=O)NCc3ccc(O)c(O)c3)cc2Cl)c(Cl)c1 [Compound 5019],78 nM
6,CC(C)(C)c1ccc(-n2nnnc2SCC(=O)Nc2ccc(C(=O)Nc3ccc(/C=C/C(=O)O)cc3)cc2Cl)c(Cl)c1 [Compound 6022],14 nM
7,Cc1cc(OCC(=O)O)ccc1-c1ccc(NC(=O)CSc2nnnn2-c2ccc(C(C)(C)C)cc2Cl)c(Cl)c1 [Compound 3011],340 nM
8,CC(C)(C)c1ccc(-n2nnnc2SCC(=O)Nc2ccc(OCC(=O)N3CCC(C(=O)O)CC3)cc2Cl)c(Cl)c1 [Compound 5028],39 nM
9,CC(C)(C)c1ccc(-n2nnnc2SCC(=O)Nc2ccc(OCC(=O)Nc3ccc(N4CCOCC4)cc3)cc2Cl)c(Cl)c1 [Compound 5005],216 nM
10,COC(=O)Cc1ccc(-c2ccc(NC(=O)CSc3nnnn3-c3ccc(C)cc3Cl)c(Cl)c2)cc1 [Compound 2003],53 nM
11,CNC(=O)c1ccc(NC(=O)CSc2nnnn2-c2ccc(C)cc2Cl)c(Cl)c1 [Compound 3007],290 nM

# From US7517998B2, “Non nucleoside reverse transcriptase inhibitors” (priority 2004, dated 2009)
